In US20040157902A1, “Integrin antagonists” (priority 2001, published 2004) one finds logD data, which are given here for three compounds.

Structures are written as SMILES.

This data set is described as follows: partition coefficient octanol/water at pH 7.4 (logD(7.4)). It counts as physicochemical. The text has this: If an active ingredient is introduced into an octanol/water mixture, it partitions between the two phases at a given pH in accordance with its lipophilicity/hydrophilicity. The ratio of the partitioning of the active ingredient between the octanol and water phases is known as the partition coefficient. Absorption of active ingredients requires that they both dissolve in aqueous media and also pass through the corresponding membranes. For the latter, a certain lipophilicity of the active ingredient is necessary. The requisite lipophilicity arises from the lipophilicity of the respective membrane. Thus, absorption in the intestine requires a logD value of >−1.50 and passage through the blood-brain barrier requires a logD value of >0.5 (Lipinski C. A: Adv. Drug Del. Rev. 23 (1997), 3-25). A favourable logD value is an essential prerequisite for absorption of an active ingredient.
logD values given above and below are partition coefficients of the compounds in question octanol/water at a pH of 7.4 (logD(7.4)).
Take `CS(=O)(=O)NC(=O)CC(NC(=O)CNC(=O)CCCCNc1ccccn1)c1ccc(-c2ccccc2)cc1` (stereo not drawn) [EMD 387 803]: the logD is -0.38. To `O=C(CNC(=O)NCCCNc1ccccn1)NC(Cc1nnn[nH]1)c1ccc(-c2ccccc2)cc1` (stereo not drawn) [EMD 387 890, N-[1-biphenyl-4-yl-2-(1H-tetrazol-5-yl)ethyl]-2-{3-[3-(pyridin-2-ylamino)propyl]ureido}acetamide] belongs 6.19; to `O=C(CCCCNc1ccccn1)NCC(=O)NC(Cc1nnn[nH]1)c1ccc(-c2ccccc2)cc1` (stereo not drawn) [EMD 389 889, N-[1-biphenyl-4-yl-2-(1H-tetrazol-5-yl)ethyl]-2-[5-(pyridin-2-ylamino)pentanoylamino]-acetamide], 6.52.
